Measurements: patent US20230278981A1, “DICHLOROPHENOL HSD17B13 INHIBITORS AND USES THEREOF” (INIPHARM, INC., priority 2020, published 2023)

target: HSD17B13 (Homo sapiens (Human), UniProt Q7Z5P4); experiment: LC/MS estrone detection assay: conversion of estradiol to estrone by HSD17B13; format: biochemical; conditions: 4 μM estradiol, 6 mM NAD+, 30 nM HSD17B13 enzyme (E. coli expressed His-tagged), 2 hours at 26.5° C.
In short: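 His-tagged E. coli-expressed HSD17B13 (30 nM) with 4 μM estradiol and 6 mM NAD+ in 1 M potassium phosphate pH 7.4, 0.5% DMSO, 2 h at 26.5° C. Estrone and estradiol quantified by LC-MS/MS after MeCN quench with D4-estrone internal standard; activity as % of uninhibited enzyme, IC50 by four-parameter fit, duplicates.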

Sequence of HSD17B13 (Q7Z5P4 20-300): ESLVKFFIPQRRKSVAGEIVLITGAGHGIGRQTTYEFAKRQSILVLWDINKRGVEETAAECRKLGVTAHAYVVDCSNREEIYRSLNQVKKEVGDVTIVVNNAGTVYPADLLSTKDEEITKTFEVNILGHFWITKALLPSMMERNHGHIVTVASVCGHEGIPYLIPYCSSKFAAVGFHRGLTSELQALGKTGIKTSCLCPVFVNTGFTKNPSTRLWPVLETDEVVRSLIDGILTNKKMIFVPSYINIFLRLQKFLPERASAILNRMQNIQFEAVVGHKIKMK

IC50 | SMILES
0.1 to 0.5 µM | O=C(Nc1scnc1C(=O)NCc1ccccc1C(F)(F)F)c1cc(Cl)c(O)c(Cl)n1 [Example 192, 5-(4,6-dichloro-5-hydroxypicolinamido)-N-(2-(trifluoromethyl)benzyl)thiazole-4-carboxamide]
0.5 to 1 µM | O=C(Nc1scnc1C(=O)NCc1cccc(C(F)(F)F)n1)c1cc(Cl)c(O)c(Cl)n1 [Example 193, 5-(4,6-dichloro-5-hydroxypicolinamido)-N-((6-(trifluoromethyl)pyridin-2-yl)methyl)thiazole-4-carboxamide]
0.1 to 0.5 µM | Cc1nc2c(F)ccc(NC(=O)c3cc(Cl)c(O)c(Cl)n3)c2c(=O)n1Cc1nn(C)c2ccccc12 [Example 194, 4,6-dichloro-N-(8-fluoro-2-methyl-3-((1-methyl-1H-indazol-3-yl)methyl)-4-oxo-3,4-dihydroquinazolin-5-yl)-5-hydroxypicolinamide]
1 to 10 µM | Cc1ccc(NC(=O)c2cc(Cl)c(O)c(Cl)n2)c2c(=O)n(Cc3ncccc3F)c(C)nc12 [Example 195, 4,6-dichloro-N-(3-((3-fluoropyridin-2-yl)methyl)-2,8-dimethyl-4-oxo-3,4-dihydroquinazolin-5-yl)-5-hydroxypicolinamide]
0.1 to 0.5 µM | O=C(Nc1scnc1C(=O)NCc1ncccc1C(F)(F)F)c1cc(Cl)c(O)c(Cl)n1 [Example 196, 5-(4,6-dichloro-5-hydroxypicolinamido)-N-((3-(trifluoromethyl)pyridin-2-yl)methyl)thiazole-4-carboxamide]
0.5 to 1 µM | Cc1nc2c(F)ccc(NC(=O)c3cc(Cl)c(O)c(Cl)c3)c2c(=O)n1Cc1cccc(C(F)(F)F)n1 [Example 197, 3,5-dichloro-N-(8-fluoro-2-methyl-4-oxo-3-((6-(trifluoromethyl)pyridin-2-yl)methyl)-3,4-dihydroquinazolin-5-yl)-4-hydroxybenzamide]
0.5 to 1 µM | O=C(Nc1scnc1C(=O)NCc1cccc(C(F)(F)F)n1)c1cc(Cl)c(O)c(Cl)c1 [Example 198, 5-(3,5-dichloro-4-hydroxybenzamido)-N-((6-(trifluoromethyl)pyridin-2-yl)methyl)thiazole-4-carboxamide]
0.5 to 1 µM | Cc1ccc(NC(=O)c2cc(Cl)c(O)c(Cl)c2)c2c(=O)n(Cc3cccc(C(F)(F)F)n3)c(C)nc12 [Example 199, 3,5-dichloro-N-(2,8-dimethyl-4-oxo-3-((6-(trifluoromethyl)pyridin-2-yl)methyl)-3,4-dihydroquinazolin-5-yl)-4-hydroxybenzamide]
≤ 0.1 µM | [2H]C([2H])(c1ccccc1C(F)(F)F)n1c(C)nc2c(C)ccc(NC(=O)c3cc(Cl)c(O)c(Cl)c3)c2c1=O [Example 200, 3,5-dichloro-N-(2,8-dimethyl-4-oxo-3-((2-(trifluoromethyl)phenyl)methyl-d2)-3,4-dihydroquinazolin-5-yl)-4-hydroxybenzamide]
0.1 to 0.5 µM | [2H]C([2H])(c1ccccc1C(F)(F)F)n1c(C)nc2c(C)ccc(NC(=O)c3cc(Cl)c(O)c(Cl)n3)c2c1=O [Example 201, 4,6-dichloro-N-(2,8-dimethyl-4-oxo-3-{[2-(trifluoromethyl)phenyl](^2H2)methyl}-3,4-dihydroquinazolin-5-yl)-5-hydroxypyridine-2-carboxamide]
0.1 to 0.5 µM | Cc1ccc(NC(=O)c2cc(Cl)c(O)c(Cl)n2)c2c(=O)n([C@@H]3CC[C@H]3c3ccccc3)c(C)nc12 [Example 202, 4,6-dichloro-N-(2,8-dimethyl-4-oxo-3-((1R,2S)-2-phenylcyclobutyl)-3,4-dihydroquinazolin-5-yl)-5-hydroxypicolinamide]
≤ 0.1 µM | Cc1ccc(NC(=O)c2cc(Cl)c(O)c(Cl)c2)c2c(=O)n([C@@H]3CC[C@H]3c3ccccc3)c(C)nc12 [Example 203, 3,5-dichloro-N-(2,8-dimethyl-4-oxo-3-((1R,2S)-2-phenylcyclobutyl)-3,4-dihydroquinazolin-5-yl)-4-hydroxybenzamide]
≤ 0.1 µM | O=C(Nc1ccc(F)c2ncn(Cc3ccccc3C(F)(F)F)c(=O)c12)c1cc(Cl)c(O)c(Cl)c1 [Example 204, 3,5-dichloro-N-(8-fluoro-4-oxo-3-(2-(trifluoromethyl)benzyl)-3,4-dihydroquinazolin-5-yl)-4-hydroxybenzamide]
0.5 to 1 µM | Cc1ccc(NC(=O)c2cc(Cl)c(O)c(Cl)n2)c2c(=O)n(Cc3cccc(C(F)(F)F)n3)c(C)nc12 [Example 205, 4,6-dichloro-N-(2,8-dimethyl-4-oxo-3-((6-(trifluoromethyl)pyridin-2-yl)methyl)-3,4-dihydroquinazolin-5-yl)-5-hydroxypicolinamide]
≤ 0.1 µM | O=C(Nc1ccc(F)c2ncn(Cc3ccccc3C(F)(F)F)c(=O)c12)c1cc(Cl)c(O)c(Cl)n1 [Example 206, 4,6-dichloro-N-(8-fluoro-4-oxo-3-(2-(trifluoromethyl)benzyl)-3,4-dihydroquinazolin-5-yl)-5-hydroxypicolinamide]
0.1 to 0.5 µM | Cc1nc2c(F)ccc(NC(=O)c3cc(Cl)c(O)c(Cl)n3)c2c(=O)n1[C@H]1CC[C@@H]1c1ccccc1 [Example 207, 4,6-dichloro-N-(8-fluoro-2-methyl-4-oxo-3-((1S,2R)-2-phenylcyclobutyl)-3,4-dihydroquinazolin-5-yl)-5-hydroxypicolinamide]
